The values that follow come from article PMC7026418, “The kinase polypharmacology landscape of clinical PARP inhibitors” (Scientific Reports, 2020).

Assay in all cases: biochemical
What all share (design): DiscoveRx KINOMEscan active site-directed competition binding; percent of control kinase bound to immobilised ligand

One test deals with T1, TBK1 (Homo sapiens, UniProt Q9UHD2).
T1 sequence (Q9UHD2 1-729): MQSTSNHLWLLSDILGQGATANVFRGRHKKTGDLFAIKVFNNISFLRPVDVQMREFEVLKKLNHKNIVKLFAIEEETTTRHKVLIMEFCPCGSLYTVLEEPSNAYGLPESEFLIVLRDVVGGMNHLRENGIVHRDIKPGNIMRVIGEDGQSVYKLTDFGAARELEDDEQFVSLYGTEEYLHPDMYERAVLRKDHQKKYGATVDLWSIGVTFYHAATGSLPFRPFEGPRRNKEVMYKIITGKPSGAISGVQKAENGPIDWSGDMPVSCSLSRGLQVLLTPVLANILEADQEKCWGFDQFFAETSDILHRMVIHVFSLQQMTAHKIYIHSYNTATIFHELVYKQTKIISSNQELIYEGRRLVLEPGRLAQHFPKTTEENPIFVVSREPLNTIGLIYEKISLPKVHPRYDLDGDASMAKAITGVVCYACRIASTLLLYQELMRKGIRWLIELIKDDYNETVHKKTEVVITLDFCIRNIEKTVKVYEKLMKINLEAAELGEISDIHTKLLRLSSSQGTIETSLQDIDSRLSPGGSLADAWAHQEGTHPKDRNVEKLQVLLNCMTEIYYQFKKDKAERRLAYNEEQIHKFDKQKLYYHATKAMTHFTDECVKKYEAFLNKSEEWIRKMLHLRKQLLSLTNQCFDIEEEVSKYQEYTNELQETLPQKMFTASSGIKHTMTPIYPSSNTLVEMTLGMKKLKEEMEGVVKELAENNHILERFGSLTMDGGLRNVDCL

Another test has as its target EGFR(E746-A750del) (Homo sapiens, UniProt P00533, DEL746-750).
The target of the next test is PRKCH (Homo sapiens, UniProt P24723).
PRKCH, sequence (P24723 whole entry): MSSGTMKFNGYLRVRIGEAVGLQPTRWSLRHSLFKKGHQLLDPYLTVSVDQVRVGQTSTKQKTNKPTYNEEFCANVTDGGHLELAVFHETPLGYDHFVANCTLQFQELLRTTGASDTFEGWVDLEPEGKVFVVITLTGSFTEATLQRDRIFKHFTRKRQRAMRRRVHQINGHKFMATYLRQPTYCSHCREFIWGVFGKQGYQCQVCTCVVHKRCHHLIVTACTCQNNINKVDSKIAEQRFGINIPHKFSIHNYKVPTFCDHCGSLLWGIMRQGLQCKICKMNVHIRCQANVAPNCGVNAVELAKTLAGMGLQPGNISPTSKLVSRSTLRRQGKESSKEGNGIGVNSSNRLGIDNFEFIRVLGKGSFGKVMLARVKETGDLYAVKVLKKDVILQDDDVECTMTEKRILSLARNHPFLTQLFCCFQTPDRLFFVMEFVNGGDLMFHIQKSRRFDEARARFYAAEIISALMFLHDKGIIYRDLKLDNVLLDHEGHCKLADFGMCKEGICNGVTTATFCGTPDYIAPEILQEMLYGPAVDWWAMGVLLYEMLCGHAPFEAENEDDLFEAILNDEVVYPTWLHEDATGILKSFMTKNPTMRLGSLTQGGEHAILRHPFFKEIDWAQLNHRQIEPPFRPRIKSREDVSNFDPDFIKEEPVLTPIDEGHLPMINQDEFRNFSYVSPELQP
The target of the next test is T2, MYO3B (Homo sapiens, UniProt Q8WXR4).
T2 sequence (Q8WXR4 1-1341): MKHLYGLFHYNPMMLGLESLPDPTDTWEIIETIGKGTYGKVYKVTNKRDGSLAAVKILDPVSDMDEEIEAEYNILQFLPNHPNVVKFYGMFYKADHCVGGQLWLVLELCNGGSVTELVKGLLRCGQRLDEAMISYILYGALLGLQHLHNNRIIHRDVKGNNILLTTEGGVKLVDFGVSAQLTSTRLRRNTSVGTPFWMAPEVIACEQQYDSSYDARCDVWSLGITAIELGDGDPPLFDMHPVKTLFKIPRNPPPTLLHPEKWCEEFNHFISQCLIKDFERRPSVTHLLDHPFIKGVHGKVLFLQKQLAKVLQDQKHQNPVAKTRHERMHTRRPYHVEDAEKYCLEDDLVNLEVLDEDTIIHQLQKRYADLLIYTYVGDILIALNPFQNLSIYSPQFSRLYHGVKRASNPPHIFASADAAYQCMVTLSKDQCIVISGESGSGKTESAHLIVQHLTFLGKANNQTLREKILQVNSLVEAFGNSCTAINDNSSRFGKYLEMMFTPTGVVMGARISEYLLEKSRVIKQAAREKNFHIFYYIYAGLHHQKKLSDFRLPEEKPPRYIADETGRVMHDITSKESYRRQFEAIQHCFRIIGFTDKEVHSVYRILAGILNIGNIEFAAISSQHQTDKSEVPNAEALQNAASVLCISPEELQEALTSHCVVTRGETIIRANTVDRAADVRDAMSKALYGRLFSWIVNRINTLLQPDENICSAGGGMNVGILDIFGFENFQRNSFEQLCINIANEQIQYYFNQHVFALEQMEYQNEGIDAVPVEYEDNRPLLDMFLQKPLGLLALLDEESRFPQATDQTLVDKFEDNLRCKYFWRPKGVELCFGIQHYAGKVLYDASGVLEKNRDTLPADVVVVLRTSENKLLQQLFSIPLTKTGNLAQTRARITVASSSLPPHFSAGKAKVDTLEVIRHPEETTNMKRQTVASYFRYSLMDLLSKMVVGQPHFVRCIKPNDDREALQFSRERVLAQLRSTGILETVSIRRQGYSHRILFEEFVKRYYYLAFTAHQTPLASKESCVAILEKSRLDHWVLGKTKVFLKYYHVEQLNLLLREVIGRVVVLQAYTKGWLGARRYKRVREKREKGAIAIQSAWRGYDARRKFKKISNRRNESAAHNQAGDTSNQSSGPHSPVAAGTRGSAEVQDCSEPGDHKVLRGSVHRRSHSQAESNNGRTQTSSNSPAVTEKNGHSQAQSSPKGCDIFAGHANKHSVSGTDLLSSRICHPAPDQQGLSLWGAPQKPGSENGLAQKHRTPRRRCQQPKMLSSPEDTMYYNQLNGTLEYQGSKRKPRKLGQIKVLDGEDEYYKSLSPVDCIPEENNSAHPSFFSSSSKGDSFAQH

Setting [1] is: read-out: Rucaparib / %Ctrl @ 10000nM, binding competition, % of control.
Setting [2] is: read-out: Talazoparib (BMN 673) / %Ctrl @ 10000nM.
Setting [3] is: read-out: Niraparib (MK-4827) / %Ctrl @ 10000nM.
[4] abbreviates: read-out: Olaparib / %Ctrl @ 10000nM.

Where two headings read alike, the source gives them in different places.

EGFR(E746-A750del), sequence (P00533 with tags, fused parts or gaps DEL746-750): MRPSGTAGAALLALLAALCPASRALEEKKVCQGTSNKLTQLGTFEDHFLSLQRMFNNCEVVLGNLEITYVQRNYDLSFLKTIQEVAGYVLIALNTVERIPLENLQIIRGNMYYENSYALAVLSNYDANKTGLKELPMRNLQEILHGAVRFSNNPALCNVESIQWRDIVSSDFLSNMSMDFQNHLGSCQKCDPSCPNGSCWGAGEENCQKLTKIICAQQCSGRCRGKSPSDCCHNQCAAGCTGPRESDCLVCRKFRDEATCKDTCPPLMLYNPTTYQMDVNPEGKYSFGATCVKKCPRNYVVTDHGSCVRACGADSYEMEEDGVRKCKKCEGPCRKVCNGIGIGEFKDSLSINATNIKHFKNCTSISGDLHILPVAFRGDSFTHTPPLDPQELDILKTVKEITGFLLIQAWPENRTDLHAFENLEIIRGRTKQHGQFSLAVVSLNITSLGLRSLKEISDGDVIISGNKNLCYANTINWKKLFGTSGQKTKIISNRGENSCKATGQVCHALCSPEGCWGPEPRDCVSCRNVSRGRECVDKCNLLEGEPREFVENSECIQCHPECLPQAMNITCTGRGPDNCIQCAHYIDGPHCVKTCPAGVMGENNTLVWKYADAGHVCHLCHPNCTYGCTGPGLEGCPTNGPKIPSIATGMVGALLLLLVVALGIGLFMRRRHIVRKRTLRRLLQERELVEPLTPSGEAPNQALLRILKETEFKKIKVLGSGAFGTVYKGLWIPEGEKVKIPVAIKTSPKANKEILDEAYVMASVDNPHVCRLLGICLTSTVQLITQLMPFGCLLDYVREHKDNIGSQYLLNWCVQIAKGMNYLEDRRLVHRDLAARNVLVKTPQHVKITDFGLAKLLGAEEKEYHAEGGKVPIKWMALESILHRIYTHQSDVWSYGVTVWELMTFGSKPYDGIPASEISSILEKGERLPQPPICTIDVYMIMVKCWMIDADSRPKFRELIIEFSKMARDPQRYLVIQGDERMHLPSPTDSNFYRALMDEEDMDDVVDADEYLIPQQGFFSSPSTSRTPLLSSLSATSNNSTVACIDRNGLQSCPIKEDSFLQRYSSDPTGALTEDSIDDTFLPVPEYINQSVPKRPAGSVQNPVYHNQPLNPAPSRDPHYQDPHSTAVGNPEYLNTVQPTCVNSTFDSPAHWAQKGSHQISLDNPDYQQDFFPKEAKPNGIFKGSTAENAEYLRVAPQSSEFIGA

For the molecule `CNCc1ccc(-c2[nH]c3cc(F)cc4c3c2CCNC4=O)cc1` [Rucaparib], the percent of control binding at 10 µM at TBK1 (setting [1]) worked out at 87%; on EGFR(E746-A750del) (setting [1]) it was 81%; on PRKCH (setting [1]) it was 94%; at MYO3B (setting [1]), 62%.
`Cn1ncnc1[C@H]1c2n[nH]c(=O)c3cc(F)cc(c23)N[C@@H]1c1ccc(F)cc1` [Talazoparib]: the percent of control binding at 10 µM at TBK1 (setting [2]) turned out to be 44%; at EGFR(E746-A750del) (setting [2]) it was 100%; on PRKCH (setting [2]) it was 98%; on MYO3B (setting [2]) it was 97%.
As to `NC(=O)c1cccc2cn(-c3ccc([C@@H]4CCCNC4)cc3)nc12` [Niraparib], the percent of control binding at 10 µM on TBK1 (setting [3]) amounted to 75%; on EGFR(E746-A750del) (setting [3]), 96%; at PRKCH (setting [3]), 85%; at MYO3B (setting [3]), 56%.
With `O=C(c1cc(Cc2n[nH]c(=O)c3ccccc23)ccc1F)N1CCN(C(=O)C2CC2)CC1` [Olaparib], the percent of control binding at 10 µM on TBK1 (setting [4]) worked out at 91%; at EGFR(E746-A750del) (setting [4]), 97%; at PRKCH (setting [4]) it was 94%; at MYO3B (setting [4]), 75%.
